Data: paper PMC7921093, “Human METTL7B is an alkyl thiol methyltransferase that metabolizes hydrogen sulfide and captopril” (Scientific Reports, 2021)

Assays:
Format in all cases: biochemical
[1] = target: T1, METTL7B (methyltransferase-like protein 7B) (Homo sapiens, UniProt Q6UX53); assay: MTaseGlo substrate screen (AdoHcy formation) with purified enzyme
T1 construct: gene TMT1B; His-GST-METTL7B, N-terminal His-GST tag with (AP)5 linker
T1 sequence (Q6UX53 1-244): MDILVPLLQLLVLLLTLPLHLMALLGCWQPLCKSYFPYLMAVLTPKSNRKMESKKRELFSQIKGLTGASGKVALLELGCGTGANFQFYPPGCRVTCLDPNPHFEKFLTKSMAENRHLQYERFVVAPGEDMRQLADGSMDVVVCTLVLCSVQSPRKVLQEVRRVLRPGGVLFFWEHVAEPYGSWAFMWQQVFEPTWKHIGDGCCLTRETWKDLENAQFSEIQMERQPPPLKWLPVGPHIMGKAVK
Text: MTaseGlo substrate screen (AdoHcy formation) with purified enzyme on METTL7B (methyltransferase-like protein 7B) | D-Penicillamine|++

[2] = target: T1, METTL7B (methyltransferase-like protein 7B); assay: Michaelis-Menten kinetics of S-methyl captopril formation, LC-MS/MS
[3] = target: T1, METTL7B (methyltransferase-like protein 7B); assay: S-methyl captopril formation by purified enzyme, LC-MS/MS; D98A inactive
[4] = target: T1, METTL7B (methyltransferase-like protein 7B); assay: methylsulfide formation, LC-MS/MS after monobromobimane derivatization, saturable kinetics

CC(C)(S)[C@@H](N)C(=O)O [D-penicillamine]
MTaseGlo substrate screen (AdoHcy formation) with purified enzyme [1]: D-Penicillamine|++

C[S+](CC[C@H](N)C(=O)[O-])C[C@H]1O[C@@H](n2cnc3c(N)ncnc32)[C@H](O)[C@@H]1O (stereo partly drawn) [S-adenosyl-L-methionine]
Michaelis-Menten kinetics of S-methyl captopril formation, LC-MS/MS [2]: the AdoMet activity curve was saturable and exhibited classic Michaelis–Menten kinetics

C[C@H](CS)C(=O)N1CCC[C@H]1C(=O)O [captopril]
S-methyl captopril formation by purified enzyme, LC-MS/MS; D98A inactive [3]: concentration-dependent formation of S-methyl captopril was observed upon incubation with purified wild-type His-GST-METTL7B

S [hydrogen sulfide]
methylsulfide formation, LC-MS/MS after monobromobimane derivatization, saturabl [4]: Peak area ratio (PAR) versus concentration curve for hydrogen sulfide methylation as measured by formation of methylsulfide
